From patent publication US4914245A, “Culpin” (E. R. Squibb & Sons, Inc., priority 1989, dated 1990)
In brackets after ≈: the same amount, converted by molar mass.

How the values were obtained:
Format in all cases: cell-based
Escherichia coli = assay: agar dilution assay (MIC) vs Escherichia coli SC 10909; conditions: Escherichia coli S.C. No. 10909; K-10 agar; 10^4 CFU; 37° C., 18 hours
Description: (§1) The following methodology was used to determine the minimum inhibitory concentration (hereinafter referred to as MIC) of the compounds of this invention against bacteria. The test organisms were grown in 20 ml of Antibiotic Assay Broth (Difco) by inoculating the broth (in tubes) with a loopful of the organism from a BHI (Difco) agar slant. The inoculated tubes were incubated at 37° C. for 18 to 24 hours. These cultures were assumed to contain 10^9 colony forming units (CFU) per ml. The cultures were diluted 1:100 to give a final inoculum level of 10^7 CFU; dilutions were made with Yeast Beef Broth (Difco). The test compounds were dissolved in an appropriate diluent at a concentration of 1,000 μg/ml. Two-fold dilutions were made in Yeast Beef Broth (Difco), resulting in a range from 1000 μg/ml to 0.5 μg/ml. A 1.5 ml portion of each dilution was placed into individual petri dishes to which 13.5 ml of K-10 agar was added. The composition of K-10 agar is The final drug concentration in the agar ranged from 100 μg/ml to 0.05 μg/ml. Organism growth control plates containing agar only were prepared and inoculated before and after the test plates. […] The plates were incubated at 37° C. for 18 hours and the MICs determined. […]

Streptococcus agalactiae = assay: agar dilution assay (MIC) vs Streptococcus agalactiae SC 9287; conditions: Streptococcus agalactiae S.C. No. 9287; K-10 agar; 10^4 CFU; 37° C., 18 hours
Description: as §1

Mycobacterium fortuitum = assay: agar dilution assay (MIC) vs Mycobacterium fortuitum SC 8571; conditions: Mycolicibacterium fortuitum; Mycobacterium fortuitum S.C. No. 8571; K-10 agar; 10^4 CFU; 37° C., 18 hours
Description: as §1

Candida tropicalis [1] = assay: agar dilution assay (MIC) vs Candida tropicalis SC 9861; conditions: Candida tropicalis S.C. No. 9861; F-4 agar; 10^3 CFU
Description: (§2) The following methodology was used to determine the minimum inhibitory concentration (hereinafter referred to as MIC) of the compounds of this invention against bacteria. The test organisms were grown in 20 ml of Antibiotic Assay Broth (Difco) by inoculating the broth (in tubes) with a loopful of the organism from a BHI (Difco) agar slant. The inoculated tubes were incubated at 37° C. for 18 to 24 hours. These cultures were assumed to contain 10^9 colony forming units (CFU) per ml. The cultures were diluted 1:100 to give a final inoculum level of 10^7 CFU; dilutions were made with Yeast Beef Broth (Difco). The test compounds were dissolved in an appropriate diluent at a concentration of 1,000 μg/ml. Two-fold dilutions were made in Yeast Beef Broth (Difco), resulting in a range from 1000 μg/ml to 0.5 μg/ml. A 1.5 ml portion of each dilution was placed into individual petri dishes to which 13.5 ml of K-10 agar was added. The composition of K-10 agar is
(§3) The final drug concentration in the agar ranged from 100 μg/ml to 0.05 μg/ml. Organism growth control plates containing agar only were prepared and inoculated before and after the test plates. […]
(§4) The plates were incubated at 37° C. for 18 hours and the MICs determined. […]

Micrococcus luteus = assay: agar dilution assay (MIC) vs Micrococcus luteus SC 2495; conditions: Micrococcus luteus S.C. No. 2495; K-10 agar; 10^4 CFU; 37° C., 18 hours
Description: as §1

Candida tropicalis [2] = assay: agar dilution assay (MIC) vs Candida tropicalis SC 2963; conditions: Candida tropicalis S.C. No. 2963; F-4 agar; 10^3 CFU
Description: as §2, §3, §4

MIC (Escherichia coli): 100 mg/L (≈ 413 µM)
MIC (Streptococcus agalactiae): 50 mg/L (≈ 206 µM)
MIC (Mycobacterium fortuitum): 50 mg/L (≈ 206 µM)
MIC (Candida tropicalis [1]): 50 mg/L (≈ 206 µM)
MIC (Micrococcus luteus): 100 mg/L (≈ 413 µM)
MIC (Candida tropicalis [2]): 50 mg/L (≈ 206 µM)
Compound: C=C(C)C#Cc1cc(O)c(CC=C(C)C)cc1O [culpin, 2-(3-methyl-2-butenyl)-5-(3-methyl-3-buten-1-ynyl)-1,4-benzenediol]
